# Assay results as given in patent US20240239894A1, “THERAPEUTIC BINDING MOLECULES” (MedImmune Limited, priority 2020, published 2024).
# Non-standard residues stand in square brackets, D forms with d. Residues, ends and D or L forms follow the SMILES beside them. *: point of attachment. Dolaproine = CO[C@@H]([C@@H]1CCCN1)[C@@H](C)C(=O)O; Dil = CC[C@H](C)[C@H](NC)[C@@H](CC(=O)O)OC; X1 = C[C@@H](N*)[C@@H](O)c1ccccc1; NMeV = CN[C@H](C(=O)O)C(C)C
# Legend:
# DLD1 BRCA2−/− cells = assay: 6-day cytotoxicity assay of warheads; type: cell-based
# Source text: (§1) MMAE=negative control, microtubule-inhibitor warhead.
# (§2) Additionally, HR-deficiency increases sensitivity to the SG3932 warhead. […] Cell viability was reduced in both wild-type and BRCA2−/− cells when treated with the MMAE warhead.
# DLD1 wt cells = assay: 6-day cytotoxicity assay of warheads; type: cell-based; conditions: wild-type cells
# Source text: as §1, §2
structure (smiles),measurement,setting,value
CC[C@H](C)[C@@H]([C@@H](CC(=O)N1CCC[C@H]1[C@H](OC)[C@@H](C)C(=O)N[C@H](C)[C@@H](O)c1ccccc1)OC)N(C)C(=O)[C@@H](NC(=O)[C@@H](NC)C(C)C)C(C)C [MMAE] (H-[NMeV]V[Dil][Dolaproine]-X1),cell viability,DLD1 BRCA2−/− cells,reduced
same,cell viability,DLD1 wt cells,reduced
